In one data set the test system is OV90. Description: Cell viability assay (CellTiter-Blue), OV90. As to conditions: for toxicity of the chemotherapeutic agent with ivospemin co-treatment (cell viability): OV90, 2 μM ivospemin 96 h, chemotherapeutic last 24 h. The format is cell-based. The source says: (§1) Cell lines, culture conditions, and reagents. Ovarian adenocarcinoma cell lines A2780 and ACRP were maintained in RPMI 1640 containing 10% fetal bovine serum. Ovarian adenocarcinoma lines CaOV-3 and OV90 were maintained in DMEM supplemented with 10% fetal bovine serum. ID8 mouse ovarian surface epithelial cells (MOSE) overexpressing VEGF and β-Defensin (VDID8+) were maintained in RPMI 1640 supplemented with 10% fetal bovine serum. […] All chemotherapeutics were purchased commercially from Sigma-Aldrich (St. Louis, MO).
(§2) Cell viability assays. Cells were seeded in triplicate wells per condition with a total cell count of 2×10^3 cells per well of a 96-well plate and allowed to adhere overnight. Cells then received 100 μL fresh medium with increasing concentrations of ivospemin. Following 96 hours of ivospemin monotherapy, 20 μL of CellTiter-Blue reagent (Promega, Madison, WI) was added, and following a 3-hour incubation, the fluorescence was measured in black, clear-bottom plates at 560Ex/590Em on a SpectraMax M5 (Molecular Devices, Sunnyvale CA). Wells containing medium alone were used as background controls. The combination chemotherapy/ivospemin experiment conditions were identical except following 72 hours of ivospemin exposure, cells received fresh medium with ivospemin and the appropriate chemotherapeutic. After an additional 24 hours (96 total hours of ivospemin, 24 hours of chemotherapy), cell viability was determined using the CellTiter-Blue cell viability assay. Results are presented as percentages relative to untreated cells. Each bar is an average of at least 3 independent biological experiments (each experiment is noted by an individual point).
(In general: The colour change of resazurin is a common sign of viable cells or microbes.)

Another data set deals with SSAT. Put plainly: SSAT activity in treated ovarian adenocarcinoma line. In kind it is cell-based, human. The conditions noted are these: ivospemin 5 μM, doxorubicin 500 nM, 48 hours. As to the method:
(§3) FIG. 11. […] The activity of the polyamine catabolic enzyme SSAT and the polyamine biosynthetic enzyme ODC was evaluated.
(§4) The activity of polyamine catabolic enzyme SSAT and polyamine biosynthetic enzyme ODC were evaluated.

For a further data set, the system named is CaOV-3. Description: Cell viability assay (CellTiter-Blue), CaOV-3. The format is cell-based. The conditions noted are these: for toxicity of the chemotherapeutic agent with ivospemin co-treatment (cell viability): CaOV-3, 2 μM ivospemin 96 h, chemotherapeutic last 24 h.
Excerpt: as §1, §2

A further data set relates to ODC. Description: ODC activity in treated ovarian adenocarcinoma line. The format is cell-based, human. As to conditions: ivospemin 5 μM, doxorubicin 500 nM, 48 hours. As to the method: as §3, §4
In data set [1] the test system is VDID8+ syngeneic ovarian epithelial cancer cells. Description: VDID8+ syngeneic mouse model of ovarian cancer (survival, ascites). The conditions noted are these: for average time between VDID8+ cell injection and ascites formation: 15% weight gain or visible abdominal swelling; for average ascites volume at first drain / effect on survival as single agent: monotherapy; for effect on survival as single agent: VDID8+ model.
Procedure: Syngeneic mouse model. Female C57BL/6J wild-type mice (7-8 weeks old, The Jackson Laboratory) were housed at the Johns Hopkins Sidney Kimmel Comprehensive Cancer Center Animal Resources Core and cared for in accordance with the policies set forth by the Johns Hopkins University Animal Care and Use Committee. VEGF-β-Defensin ID8 (VDID8+) syngeneic mouse ovarian surface epithelial cells (first developed by Dr. Katherine Roby) were injected intraperitoneally into C57BL/6 mice (350,000 cells/mouse) (Roby et al., 2000). Treatment of mice began three days following VDID8^+ injection. Mice in the combination study were treated with the following dosing schedule: 24 mg/kg ivospemin 2qw×3, alternating weeks; 30 mg/kg gemcitabine qw×4; 1 mg/kg topotecan 3qw×4. All drugs were administered intraperitoneally. Following production of palpable ascites fluid or a 15% weight gain, animals were drained of their ascites fluid, which was measured as a marker for tumor burden. Decisions for subsequent drains was determined by the same criteria. No animals were drained more than once a week, and animals who survived to a fourth drain were subsequently euthanized.
Statistical analysis. All statistical testing was completed using GraphPad Prism software (v9.5.1, La Jolla, CA). […] Multiple testing correction was performed based on the Benjamini-Hochberg method. […] All mouse survival curves were analyzed using the log-rank (Mantel-Cox) test. Mouse ascites data were analyzed by one-way ANOVA and then individual comparisons were analyzed by two-sided Welch's t-tests unless otherwise specified. Multiple testing correction was performed based on the Benjamini-Hochberg method. […] P-value indications are as follows: *<0.05; **<0.01; ***<0.001; ****<0.0001.

The test system of another data set is ACRP. Description: Cell viability assay (CellTiter-Blue), ACRP. In kind it is cell-based. The conditions noted are these: for toxicity of the chemotherapeutic agent with ivospemin co-treatment (cell viability): 2 μM ivospemin 96 h, chemotherapeutic last 24 h.
Excerpt: as §1, §2

The test system of the next data set is A2780. Description: Cell viability assay (CellTiter-Blue), A2780. The format is cell-based. The conditions noted are these: for toxicity of the chemotherapeutic agent with ivospemin co-treatment (cell viability): A2780, 2 μM ivospemin 96 h, gemcitabine 50 nM, topotecan 50 nM, paclitaxel 2 nM, docetaxel 2 nM last 24 h.
Excerpt: as §1, §2

Another data set deals with VDID8+ cells. As to conditions: NSG mice.
Data set [2] concerns ovarian adenocarcinoma cell lines. Description: Cell viability, ovarian adenocarcinoma cell lines taken together. The conditions noted are these: for added in vitro toxicity/benefit of the chemotherapeutic over ivospemin (SBP-101) alone: cisplatin-sensitive and cisplatin-resistant ovarian cancer cell lines. In kind it is cell-based.
Excerpt: as §1, §2
The cisplatin-sensitive ovarian adenocarcinoma lines, A2780 and OV90 (FIG. 4A), and the cisplatin-resistant ovarian adenocarcinoma lines, ACRP and CaOV-3 (FIG. 4B), were treated for 96 hours with concentrations of ivospemin ranging from 500 nM to 10 μM. […] These four ovarian adenocarcinoma lines were then treated with various chemotherapeutic agents including gemcitabine (50 nM), topotecan (50 nM), paclitaxel (2 nM) and docetaxel (2 nM). These agents represent standard of care chemotherapeutic options used with some regularity in patients with platinum-resistant ovarian cancer. Cells were treated with three increasing concentrations of each chemotherapy alone to determine an appropriate dose prior to combination studies.

The conditions of data set [3]: in vivo; cited from earlier work.
A further data set relates to tumor putrescine levels. As to conditions: eflornithine infusion; cited from earlier work.

pIC50: −log10 of the molar value. “Also recorded” adds a separate entry of the source.

Consider `CCNCCC(O)CNCCCCNCC(O)CCNCC` (stereo not shown) [ivospemin, 3,8,13,18-tetraazaicosane-6,15-diol], for which the pIC50 with OV90 (Homo sapiens, OV-90, ivospemin 96 hours, OV90, cisplatin sensitive) is 5.49; in the data set with CaOV-3 (Homo sapiens, ivospemin 96 hours, CaOV-3, cisplatin resistant) it was 5.59; in the data set on ACRP (ivospemin 96 hours, cisplatin resistant), 5.85; in the data set on A2780 (Homo sapiens, ivospemin 96 hours, A2780, cisplatin sensitive), 6.02; in data set [2] (96 hours, A2780, OV90, ACRP, CaOV-3, read-out: IC50 values, all four lines), 5.49 to 6.02. The SSAT activity entry is listed as “increases SSAT activity” in the data set with SSAT and “increase SSAT activity” in the data set with SSAT (listed as SBP-101). Also, the figures for the ODC activity entry in the data set with ODC and with ODC (listed as SBP-101) were “depression of ODC activity” and “decreases ODC activity”, respectively. Besides, the “average time between VDID8+ cell injection and ascites formation” value in data set [1] is given as 39.5 days. Besides, the median survival in data set [1] (days post-injection, ivospemin 24 mg/kg 2qw×3 alternating weeks, gemcitabine 30 mg/kg qw×4, topotecan 1 mg/kg 3qw×4, i.p.) is 52 days. In addition, the “increase in median survival compared to untreated (control) animals” value in [1] (gemcitabine/topotecan combination study) is listed as 20%. In addition, the “average ascites volume at first drain” value in data set [1] stood at 1.15 mL. Also, in data set [1] (listed as SBP-101), the “effect on survival as single agent” value is on record as “marked increase; also recorded: significantly increased”. The “tumor burden and ascites formation” value in the data set on VDID8+ cells was “Neither ivospemin alone nor the combination treatment decrease tumor burden or delayed ascites formation”.
Take `CC(=O)O[C@H]1C(=O)[C@@]2(C)[C@H]([C@H](OC(=O)c3ccccc3)[C@]3(O)C[C@H](OC(=O)[C@H](O)[C@@H](NC(=O)c4ccccc4)c4ccccc4)C(C)=C1C3(C)C)[C@]1(OC(C)=O)CO[C@@H]1C[C@@H]2O` [paclitaxel]: in the data set on OV90, the “toxicity of the chemotherapeutic agent with ivospemin co-treatment (cell viability)” value (“toxicity of the chemotherapeutic agent” below) is recorded as “did not increase”. Besides, the “added in vitro toxicity/benefit of the chemotherapeutic over ivospemin (SBP-101) alone” value in [2] is “little to no benefit”; in data set [2] (listed as Paclitaxel), “did not have any added benefit”.
Consider `COc1cccc2c1C(=O)c1c(O)c3c(c(O)c1C2=O)C[C@@](O)(C(=O)CO)C[C@@H]3OC1CC(N)C(O)C(C)O1` (stereo partly drawn) [doxorubicin, (8S,10S)-10-(4-amino-5-hydroxy-6-methyl-tetrahydro-2H-pyran-2-yloxy)-6,8,11-trihydroxy-8-(2-hydroxyacetyl)-1-methoxy-7,8,9,10-tetrahydrotetracene-5,12-dione], for which the “nausea and vomiting, share of people treated” value in [3] is recorded as 30-90%. The SSAT activity entry in the data set on SSAT is on record as “increases SSAT activity”. The ODC activity result with ODC is given as “does not have any effect”. In [1] (ivospemin 24 mg/kg 2qw×4 alternating weeks, doxorubicin 0.5 mg/kg 2qw×4), this compound registered a median survival of 96 days. The “effect on survival as single agent” value in [1] is “significantly increased”.
For the compound `NCCCC(N)(C(=O)O)C(F)F` (stereo not shown) [eflornithine, 2,5-diamino-2-(difluoromethyl) pentanoic acid], the “decrease in tumor putrescine levels” value in the data set on tumor putrescine levels was 90%.
`CC[C@@]1(O)C(=O)OCc2c1cc1n(c2=O)Cc2cc3c(CN(C)C)c(O)ccc3nc2-1` [topotecan]: the “toxicity of the chemotherapeutic agent” value in the data set on OV90 is “did increase; also recorded: increased the toxicity”; in the data set on CaOV-3, “significantly increased; also recorded: increased the toxicity”; in the data set on ACRP, “greater toxicity than ivospemin alone; also recorded: significantly exceeded the effect of ivospemin alone”; in the data set with A2780 it was “significantly exceeded the effect of ivospemin alone”. In addition, in data set [1], the “average time between VDID8+ cell injection and ascites formation” value came out at 43.4 days. Also, the “average ascites volume at first drain” value in data set [1] stood at 3.19 mL. In data set [1], the “effect on survival as single agent” value is “Neither gemcitabine nor topotecan produced a statistically significant survival benefit; also recorded: little effect”. Besides, the “added in vitro toxicity/benefit of the chemotherapeutic over ivospemin (SBP-101) alone” value in [2] was “increased ivospemin toxicity; also recorded: increased the in vitro toxicity of SBP-101”.
With `Nc1ccn([C@@H]2O[C@H](CO)[C@@H](O)C2(F)F)c(=O)n1` [gemcitabine], the “toxicity of the chemotherapeutic agent” value was “did increase; also recorded: increased the toxicity” with OV90, “significantly increased; also recorded: increased the toxicity” with CaOV-3, “greater toxicity than ivospemin alone; also recorded: significantly exceeded the effect of ivospemin alone” with ACRP and “significantly exceeded the effect of ivospemin alone” in the data set with A2780. For the same compound, the “average time between VDID8+ cell injection and ascites formation” value in data set [1] stood at 41.7 days. Moreover, the “average ascites volume at first drain” value in data set [1] is recorded as 2.03 mL. For the same compound, the “effect on survival as single agent” value is given as “Neither gemcitabine nor topotecan produced a statistically significant survival benefit” in [1] and “little effect” in [1] (listed as Gemcitabine). For the same compound, the “added in vitro toxicity/benefit of the chemotherapeutic over ivospemin (SBP-101) alone” value in data set [2] was “increased ivospemin toxicity; also recorded: increased the in vitro toxicity of SBP-101”.
In the case of `CC(=O)O[C@@]12CO[C@@H]1C[C@H](O)[C@@]1(C)C(=O)[C@H](O)C3=C(C)[C@@H](OC(=O)[C@H](O)[C@@H](NC(=O)OC(C)(C)C)c4ccccc4)C[C@@](O)([C@@H](OC(=O)c4ccccc4)[C@H]21)C3(C)C` [docetaxel], the “toxicity of the chemotherapeutic agent” value with OV90 is on record as “did not increase”. In addition, the “added in vitro toxicity/benefit of the chemotherapeutic over ivospemin (SBP-101) alone” value in [2] is reported as “little to no benefit; also recorded: did not have any added benefit”.

Broadly, the pIC50 is the IC50 on a negative log10 scale, so that one unit is a factor of ten.

The values are drawn from US20260272966A1, “COMBINATION TREATMENT FOR OVARIAN CANCER” (THE JOHNS HOPKINS UNIVERSITY, priority 2023, published 2026).
